Data taken from patent US6335443B1, “Chemical synthesis of exochelins” (Keystone Biomedical, Inc., priority 1998, dated 2002).
“And” between values parts separate entries of the source, which are not always exact repeats. Equal entries are not always repeated.

Columns and labels:
ferri-Exochelin 758SM [1] = assay: Capacity to remove iron from Ferri-Exochelin 758SM in the same vial (772SM(R) vs 772SM(S)); assay type: binding; details: Table 3
Method: To further assess the relative affinities of the stereoisomers desferri-Exochelin 772SM(R) and 772SM(S) for iron, their capacity to remove iron from a different exochelin species in the same vial were compared.
In the experiment,15.6 μg of 1.1% iron-saturated synthetic Exochelin 772SM(R) and 17.4 μg of 1.0% iron-saturated synthetic Exochelin 772SM(S) was mixed with 13.5 μg of 100% iron-saturated native Exochelin 758SM.

[2] = molecular target: 40% iron-saturated human transferrin (Homo sapiens, UniProt P02787); assay: Capacity to remove iron from 40% iron-saturated human transferrin; assay type: biochemical; details: Fe3+:desferri-Exochelin 10:1, PBS pH 7.4
40% iron-saturated human transferrin, sequence (P02787 20-698): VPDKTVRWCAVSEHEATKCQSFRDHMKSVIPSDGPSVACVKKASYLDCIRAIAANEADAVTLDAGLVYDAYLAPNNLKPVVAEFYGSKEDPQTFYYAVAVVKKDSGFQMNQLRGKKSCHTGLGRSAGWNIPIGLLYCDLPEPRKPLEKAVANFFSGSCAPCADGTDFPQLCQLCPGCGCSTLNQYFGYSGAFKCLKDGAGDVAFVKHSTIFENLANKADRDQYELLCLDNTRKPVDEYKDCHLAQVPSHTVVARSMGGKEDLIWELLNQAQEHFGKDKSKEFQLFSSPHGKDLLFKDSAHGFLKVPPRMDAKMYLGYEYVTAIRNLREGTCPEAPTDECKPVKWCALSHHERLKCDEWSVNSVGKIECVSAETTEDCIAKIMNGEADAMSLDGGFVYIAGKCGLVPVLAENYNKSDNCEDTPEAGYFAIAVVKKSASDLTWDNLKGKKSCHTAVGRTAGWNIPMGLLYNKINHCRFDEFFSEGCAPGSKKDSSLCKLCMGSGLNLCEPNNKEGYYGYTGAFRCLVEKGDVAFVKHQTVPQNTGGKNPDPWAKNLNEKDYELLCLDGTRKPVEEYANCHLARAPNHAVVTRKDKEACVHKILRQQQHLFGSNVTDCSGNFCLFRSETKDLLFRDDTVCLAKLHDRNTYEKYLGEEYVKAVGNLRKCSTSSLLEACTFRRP
Method: (§1) A. 40% Iron-Saturated Human Transferrin. To assess the capacity of the 3 different desferri-Exochelins to remove iron from 40% iron-saturated human transferrin, each of them was incubated for 1, 3, and 24 hours with 40% iron-saturated transferrin such that the ratio of Fe^3+: desferri-Exochelin equaled 10:1. The incubation was carried out in PBS, pH 7.4. Afterwards, the Exochelin and transferrin were separated from each other by centrifugation through a 10,000 dalton cut-off filter. The transferrin (mass 76,000 daltons) was completely excluded by this filter whereas 85% of the Exochelin (mass<1,000) was recovered in the filtrate. To determine the total amount of exochelin recovered, the exochelin in the filtrate was saturated with a 20:1 molar excess of ferric ammonium citrate and subjected to reverse-phase HPLC as described above. To determine the amount of iron-saturated Exochelin in the filtrate at each time point, the filtrate was subjected to reverse-phase HPLC without the addition of iron. The % iron-saturation was calculated as follows: [formula]

ferri-Exochelin 758SM [3] = assay: Capacity to remove iron from a different Exochelin species (Ferri-Exochelin 758SM); assay type: binding
Method: C. Capacity to Remove Iron from a Different Exochelin Species. To assess the affinity of the synthetic desferri-Exochelin 772SM(R) for iron, its capacity to remove iron from a different Exochelin species, ferri-Exochelin 758SM, was evaluated. The capacity of synthetic and native desferri-Exochelin 772SM(R) to remove iron from ferri-Exochelin 758SM was also evaluated and compared. Either native or synthetic desferri-Exochelin 772SM(R) were independently mixed with ferri-Exochelin 758SM. The amount of iron acquired in 1 hour by the desferri-Exochelins was assayed by subjecting the Exochelin to reverse-phase HPLC on a phenyl column, as described above, and the area under the 450 nm absorbance peak was measured. The amount of iron-Exochelin was then calculated using a conversion factor derived from assaying known amounts of ferri-Exochelin 772SM(R).
C. Capacity to Remove Iron from a Different Exochelin Species. To assess the affinity of the synthetic desferri-Exochelin 772SM(S) for iron, its capacity to remove iron from a different exochelin species, ferri-Exochelin 758SM was evaluated. The capacity of synthetic desferri-Exochelin 772SM(S) and native desferri-Exochelin 772SM(R) to remove iron from ferri-Exochelin 758SM was also evaluated and compared. Either synthetic desferri-Exochelin 772SM(S) or native desferri-Exochelin 772SM(R) was mixed with ferri-Exochelin 758SM. The amount of iron acquired by the desferri-exochelins after 1 hour was assayed by subjecting the molecule to reverse-phase HPLC on a phenyl column, as described above, and the area under the 450 nm absorbance peak was measured. The amount of iron-exochelin was then calculated using a conversion factor derived from assaying known amounts of ferri-Exochelin 772SM(R) and ferri-Exochelin 772SM(S).

[4] = molecular target: human apotransferrin (<0.7% iron-saturated) (Homo sapiens, UniProt P02787); assay: Control incubation with human apotransferrin (<0.7% iron-saturated); assay type: biochemical; details: apotransferrin 38 mg/ml, listed as Synthetic Desferri-Exochelin 772SM(R)
human apotransferrin (<0.7% iron-saturated), sequence (P02787 20-698): as above
Method: as §1
C. Apotransferrin (<0.7% Iron-Saturated Human Transferrin). As a control, the three desferri-exochelins were incubated for 3 h and 24 h with human apotransferrin (<0.7% iron-saturated) at a concentration of 38 mg/ml, the same concentration of protein as in the study utilizing 92% iron-saturated transferrin in B above. None of the desferri-exochelins acquired appreciable amounts of iron (Table 6).

[5] = molecular target: holo-transferrin (92% iron-saturated human transferrin) (Homo sapiens, UniProt P02787); assay: Capacity to remove iron from holo-transferrin (92% iron-saturated human transferrin); assay type: biochemical; details: Fe3+:desferri-Exochelin 10:1
holo-transferrin (92% iron-saturated human transferrin), sequence (P02787 20-698): as above
Method: as §1
B. Holo-Transferrin (92% Iron-Saturated Human Transferrin). To assess the capacity of the 3 different desferri-Exochelins to remove iron from holo-transferrin (92% iron-saturated human transferring, each of them was incubated for 1, 3, and 24 h with 92% iron-saturated transferrin such that the ratio of Fe^3+: desferri-Exochelin equaled 10:1, as in the aforementioned study with 40% iron-saturated transferrin. The % iron-saturation of the Exochelins was assayed as above.

[6] = Capacity to chelate iron from ferric ammonium citrate solution (reverse-phase HPLC, 450 nm); assay type: binding
Method: A. Capacity to Chelate Iron. To determine if the synthetic desferri-Exochelin 772SM(R) could chelate iron, as does the native form, the Exochelin was dissolved in 0.1% TFA containing ferric ammonium citrate at a 10-fold molar excess of iron to Exochelin. The solution was then loaded on a Bondapak Phenyl 125 Å 10 μm (3.9×300 mm) HPLC column and the Exochelin was subjected to reverse-phase HPLC (High Pressure Liquid Chromatography) on a Rainin (Woburn, Mass.) HPXL system. The Exochelin was eluted with a 0-100% gradient of a buffer consisting of 0.1% TFA and 50% acetonitrile at a flow rate of 1 ml/min. The ferri-exochelins were monitored at 220-nm and 450-nm absorbance. The mass of ferri-exochelin was assayed by measuring the area under the peak at 450-nm and applying a conversion factor derived from assaying known amounts of ferri-exochelin 772SM(R).
A. Capacity to Chelate Iron. The capacity of synthetic Exochelin 772SM(S) to chelate iron from a solution containing a 10-fold molar excess of ferric iron (ferric ammonium citrate) was assayed as described above.

[7] = listed as synthetic desferri-exochelin 772SM(R)

**Q.** For `COC(=O)CCCCCC(=O)N(O)CCCCC(NC(=O)C1COC(c2ccccc2O)=N1)C(=O)OC(C)CC(=O)NC1CCCCN(O)C1=O` [Synthetic 772SM(R), Exochelin 772SM(R)], which “% Iron-Saturation 0 hour” value (ferri-Exochelin 758SM [1]; 0 hour, 772SM(R), 772SM(S) and 758SM in the same vial) is on record?
**A.** Its value is 1.1%.

**Q.** What about the “% of Calculated Iron-Saturation at Equilibrium 0 hour” value (ferri-Exochelin 758SM [1]; 0 hour, same vial, assuming comparable affinities) of the same compound?
**A.** The value was 3.7%.

**Q.** What about the “% Iron-Saturation 1 hour” value (ferri-Exochelin 758SM [1]; 772SM(R), 772SM(S) and 758SM in the same vial) of the same compound?
**A.** Its value is 28.2%.

**Q.** What about the “% Iron-Saturation 1 hour” value (ferri-Exochelin 758SM [1]; 772SM(R), 772SM(S) and 758SM in the same vial, listed as synthetic Exochelin 772SM(R)) of the same compound?
**A.** The value was 28.2%.

**Q.** What about the “% of Calculated Iron-Saturation at Equilibrium 1 hour” value (ferri-Exochelin 758SM [1]; same vial, assuming comparable affinities) of the same compound?
**A.** The value was 94.3%.

**Q.** What about the “% of Calculated Iron-Saturation at Equilibrium 1 hour” value (ferri-Exochelin 758SM [1]; same vial, assuming comparable affinities, listed as synthetic Exochelin 772SM(R)) of the same compound?
**A.** Its value is 94.3%.

**Q.** And the “Iron-Saturation 1 h” value ([2]; 1 h, listed as Synthetic Desferri-Exochelin 772SM(R))?
**A.** Its value is 6.8%.

**Q.** And the “Iron-Saturation 3 h” value ([2]; 3 h, listed as Synthetic Desferri-Exochelin 772SM(R))?
**A.** Its value is 12.8%.

**Q.** What about the “Iron-Saturation 24 h” value ([2]; listed as Synthetic Desferri-Exochelin 772SM(R)) of the same compound?
**A.** The value was 39.2%.

**Q.** What about the “Iron-Saturation 24 h” value [2, 7] of the same compound?
**A.** Its value is 39.2%.

**Q.** And the “% of Calculated Iron-Saturation at Equilibrium 0 h” value (ferri-Exochelin 758SM [3]; Table 1, 0 h, assuming comparable affinities for iron, 17.3 µg 772SM(R), Experiment II)?
**A.** Its value is 2.0%.

**Q.** What about the “% of Calculated Iron-Saturation at Equilibrium 0 h” value (ferri-Exochelin 758SM [3]; Table 1, 0 h, assuming comparable affinities for iron, 26.1 µg 772SM(R), Experiment I) of the same compound?
**A.** The value was 2.7%.

**Q.** And the “% Iron-Saturation 0 h” value (ferri-Exochelin 758SM [3]; Table 1, 0 h, mixed with ferri-Exochelin 758SM)?
**A.** The value was 1.1%.

**Q.** And the “% of Calculated Iron-Saturation at Equilibrium 1 h” value (ferri-Exochelin 758SM [3]; Table 1, assuming comparable affinities for iron, 17.3 µg 772SM(R), Experiment II)?
**A.** The value was 90.2%.

**Q.** And the “% of Calculated Iron-Saturation at Equilibrium 1 h” value (ferri-Exochelin 758SM [3]; Table 1, assuming comparable affinities for iron, 26.1 µg 772SM(R), Experiment I)?
**A.** The value was 81.3%.

**Q.** What about the “% of Calculated Iron-Saturation at Equilibrium 1 h” value (ferri-Exochelin 758SM [3]; Table 1, assuming comparable affinities for iron, listed as synthetic Exochelin 772SM(R)) of the same compound?
**A.** The value was 81.3% and 90.2%.

**Q.** What about the “% Iron-Saturation 1 h” value (ferri-Exochelin 758SM [3]; Table 1, mixed with ferri-Exochelin 758SM, 17.3 µg 772SM(R), Experiment II) of the same compound?
**A.** The value was 48.6%.

**Q.** What about the “% Iron-Saturation 1 h” value (ferri-Exochelin 758SM [3]; Table 1, mixed with ferri-Exochelin 758SM, 26.1 µg 772SM(R), Experiment I) of the same compound?
**A.** The value was 33.5%.

**Q.** And the “% Iron-Saturation 1 h” value (ferri-Exochelin 758SM [3]; Table 1, mixed with ferri-Exochelin 758SM, listed as synthetic Exochelin 772SM(R))?
**A.** Its value is 33.5% and 48.6%.

**Q.** What about the “% of Calculated Iron-Saturation at Equilibrium 0 hour” value (ferri-Exochelin 758SM [3]; Table 2, 0 hour, assuming comparable affinities for iron) of the same compound?
**A.** Its value is 2.3%.

**Q.** And the “% Iron-Saturation 0 hour” value (ferri-Exochelin 758SM [3]; Table 2, 0 hour, mixed with ferri-Exochelin 758SM)?
**A.** The value was 1.1%.

**Q.** And the “% of Calculated Iron-Saturation at Equilibrium 1 hour” value (ferri-Exochelin 758SM [3]; Table 2, assuming comparable affinities for iron)?
**A.** The value was 90.7%.

**Q.** And the “% of Calculated Iron-Saturation at Equilibrium 1 hour” value (ferri-Exochelin 758SM [3]; Table 2, assuming comparable affinities for iron, listed as synthetic Exochelin 772SM(R))?
**A.** The value was 90.7%.

**Q.** What about the “% Iron-Saturation 1 hour” value (ferri-Exochelin 758SM [3]; Table 2, mixed with ferri-Exochelin 758SM) of the same compound?
**A.** Its value is 42.9%.

**Q.** What about the “% Iron-Saturation 1 hour” value (ferri-Exochelin 758SM [3]; Table 2, mixed with ferri-Exochelin 758SM, listed as synthetic Exochelin 772SM(R)) of the same compound?
**A.** The value was 42.9%.

**Q.** What about the “affinity for iron (in words)” value (ferri-Exochelin 758SM [3]; removal of iron from ferri-Exochelin 758SM within 1 h) of the same compound?
**A.** The value was “very high affinity for iron”.

**Q.** And the “Iron-Saturation 0 h” value ([4]; 0 h)?
**A.** The value was 1.1%.

**Q.** And the “Iron-Saturation 3 h” value ([4]; 3 h)?
**A.** Its value is 5.2%.

**Q.** What about the “Iron-Saturation 24 h” value ([4]; 24 h) of the same compound?
**A.** Its value is 6.9%.

**Q.** What about the “Iron-Saturation 0 h” value ([5]; 0 h, listed as Synthetic Desferri-Exochelin 7728M(R)) of the same compound?
**A.** Its value is 1.1%.

**Q.** What about the “Iron-Saturation 1 h” value ([5]; 1 h, listed as Synthetic Desferri-Exochelin 7728M(R)) of the same compound?
**A.** Its value is 13.6%.

**Q.** And the “Iron-Saturation 3 h” value ([5]; 3 h, listed as Synthetic Desferri-Exochelin 7728M(R))?
**A.** Its value is 31.5%.

**Q.** And the “Iron-Saturation 24 h” value ([5]; listed as Synthetic Desferri-Exochelin 7728M(R))?
**A.** Its value is 60.0%.

**Q.** And the “Iron-Saturation 24 h” value [5, 7]?
**A.** The value was 60.0%.

**Q.** What about the “ferri-exochelin eluted from the HPLC column, % of the Exochelin added” value ([6]; absence of ferric ammonium citrate, listed as synthetic desferri-Exochelin 772SM(R)) of the same compound?
**A.** Its value is 1.08%.

**Q.** What about the “capacity to chelate iron (in words)” value ([6]; ferric iron in solution, listed as synthetic desferri-exochelin 772SM(R)) of the same compound?
**A.** The value was “rapidly chelates ferric iron in solution”.

**Q.** And the “exochelin eluted from the column in the ferri form” value ([6]; presence of ferric ammonium citrate, 10-fold molar excess of iron, listed as synthetic desferri-Exochelin 772SM(R))?
**A.** The value was 100%.
